# From PubChem BioAssay AID330 (DTP/NCI, 2004)
# Values joined by “and” are separate entries in the source; they are usually repeats but may differ in a detail not shown here. Identical values can stand only once. Toxic doses and inconclusive results are not listed.
# System: P388 leukemia ip, CD2F1 mice, survival T/C
# Assay: NCI In Vivo Anticancer Drug Screen. Data for tumor model P388 Leukemia (intraperitoneal) in CD2F1 (CDF1) mice
# Conditions: endpoint: median survival time, higher = longer survival
# Procedure, shortened: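 Mice carrying the transplanted tumor received test compound or vehicle. Survival was recorded in each group, and the value is the treated-group measurement divided by that of the vehicle-treated control group.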
# [1] = dose: 25.0 mg/kg/injection, schedule: Q01DX009 (ip), vehicle: saline with Tween-80
# [2] = dose: 50.0 mg/kg/injection, schedule: Q01DX009 (ip), vehicle: saline with Tween-80
# [3] = dose: 12.5 mg/kg/injection, schedule: Q01DX009 (ip), vehicle: saline with Tween-80
# [4] = dose: 60.0 mg/kg/injection, schedule: Q01DX005 (ip), vehicle: saline with Tween-80
# [5] = dose: 120.0 mg/kg/injection, schedule: Q01DX005 (ip), vehicle: saline with Tween-80
# [6] = dose: 240.0 mg/kg/injection, schedule: Q01DX005 (ip), vehicle: saline with Tween-80
# [7] = dose: 50.0 mg/kg/injection, schedule: Q01DX009 (ip), vehicle: saline
# [8] = dose: 25.0 mg/kg/injection, schedule: Q01DX005 (ip), vehicle: Klucel (hydroxypropylcellulose) (HPC)
# [9] = dose: 50.0 mg/kg/injection, schedule: Q01DX005 (ip), vehicle: Klucel (hydroxypropylcellulose) (HPC)
# [10] = dose: 100.0 mg/kg/injection, schedule: Q01DX005 (ip), vehicle: Klucel (hydroxypropylcellulose) (HPC)
# [11] = dose: 200.0 mg/kg/injection, schedule: Q01DX005 (ip), vehicle: Klucel (hydroxypropylcellulose) (HPC)
smiles,measurement,setting,value
O=C(O)CC(Nc1ccc([N+](=O)[O-])cc1[N+](=O)[O-])C(=O)O (configuration not stated),T/C,"dose: 50.0 mg/kg/injection, schedule: Q01DX005 (ip), vehicle: saline",100 % of control
same,T/C,"dose: 100.0 mg/kg/injection, schedule: Q01DX005 (ip), vehicle: saline",106 % of control
same,T/C,"dose: 200.0 mg/kg/injection, schedule: Q01DX005 (ip), vehicle: saline",103 % of control
CC12CC(CC1=O)CC2S(=O)(=O)O (configuration not stated),T/C,"dose: 100.0 mg/kg/injection, schedule: Q01DX001 (ip), vehicle: saline with Tween-80",96 % of control
same,T/C,"dose: 200.0 mg/kg/injection, schedule: Q01DX001 (ip), vehicle: saline with Tween-80",102 % of control
Cc1[nH]ccc2c(C)c3nc4ccccc4c3cc12,T/C,"dose: 6.25 mg/kg/injection, schedule: Q04DX002 (ip), vehicle: water",108 % of control
same,T/C,"dose: 12.5 mg/kg/injection, schedule: Q04DX002 (ip), vehicle: water",121 % of control
same,T/C,[1],163 % of control
same,T/C,"dose: 25.0 mg/kg/injection, schedule: Q04DX002 (ip), vehicle: water",123 % of control
same,T/C,[2],113 % of control
same,T/C,"dose: 100.0 mg/kg/injection, schedule: Q04DX002 (ip), vehicle: water",153 % of control
same,T/C,"dose: 160.0 mg/kg/injection, schedule: Q04DX002 (ip), vehicle: distilled water + Tween-80",157 % of control
same,T/C,"dose: 200.0 mg/kg/injection, schedule: Q04DX002 (ip), vehicle: water",166 % of control
same,T/C,"dose: 320.0 mg/kg/injection, schedule: Q04DX002 (ip), vehicle: distilled water + Tween-80",188 % of control
CC(=O)C(=Cc1ccc(OC2OC(CO)C(O)C(O)C2O)cc1)C(C)=O (configuration not stated),T/C,"dose: 60.0 mg/kg/injection, schedule: Q01DX005 (ip), vehicle: saline",100 % of control
same,T/C,"dose: 120.0 mg/kg/injection, schedule: Q01DX005 (ip), vehicle: saline",100 % of control
same,T/C,"dose: 240.0 mg/kg/injection, schedule: Q01DX005 (ip), vehicle: saline",98 % of control
COc1c(Br)cc(/C=C/[N+](=O)[O-])cc1Br,T/C,"dose: 6.25 mg/kg/injection, schedule: Q01DX009 (ip), vehicle: saline with Tween-80",124 % of control
same,T/C,[3],112 % of control
O=C(NNS(=O)(=O)CCC(NC(=O)OCc1ccccc1)C(=O)OCc1ccccc1)OCc1ccccc1 (configuration not stated),T/C,"dose: 12.5 mg/kg/injection, schedule: Q01DX009 (ip), vehicle: other",110 % of control
same,T/C,"dose: 25.0 mg/kg/injection, schedule: Q01DX009 (ip), vehicle: other",102 % of control
same,T/C,"dose: 50.0 mg/kg/injection, schedule: Q01DX009 (ip), vehicle: other",96 % of control
same,T/C,"dose: 100.0 mg/kg/injection, schedule: Q01DX009 (ip), vehicle: other",96 % of control
O=C1C2C3C=CC(C2C(=O)N1COP(=O)(O)O)C1C2C(=O)N(COP(=O)(O)O)C(=O)C2C31 (configuration not stated),T/C,"dose: 20.0 mg/kg/injection, schedule: Q01DX009 (ip), vehicle: water",112 % of control
same,T/C,"dose: 40.0 mg/kg/injection, schedule: Q01DX009 (ip), vehicle: water",112 % of control
same,T/C,"dose: 80.0 mg/kg/injection, schedule: Q01DX009 (ip), vehicle: water",112 % of control and 90 % of control
same,T/C,"dose: 160.0 mg/kg/injection, schedule: Q01DX009 (ip), vehicle: water",165 % of control
same,T/C,"dose: 240.0 mg/kg/injection, schedule: Q01DX009 (ip), vehicle: water",152 % of control
CC(C)(C)NC(Cc1ccccc1)=NC1CCCCC1,T/C,"dose: 12.5 mg/kg/injection, schedule: Q04DX002 (ip), vehicle: saline",103 % of control
same,T/C,"dose: 25.0 mg/kg/injection, schedule: Q04DX002 (ip), vehicle: saline",101 % of control
O=C(CCc1nc2ccccc2[nH]1)C1Cc2ccccc2C1=O (configuration not stated),T/C,[4],103 % of control
same,T/C,[5],104 % of control
same,T/C,[6],103 % of control
O=C([O-])C(=O)[O-].[Co+3].[NH2-].[NH2-].[NH2-].[NH2-].[O-][Cl+3]([O-])([O-])O,T/C,"dose: 12.5 mg/kg/injection, schedule: Q04DX003 (ip), vehicle: water",89 % of control
same,T/C,"dose: 25.0 mg/kg/injection, schedule: Q04DX003 (ip), vehicle: water",95 % of control
same,T/C,"dose: 50.0 mg/kg/injection, schedule: Q04DX003 (ip), vehicle: water",98 % of control
same,T/C,"dose: 100.0 mg/kg/injection, schedule: Q04DX003 (ip), vehicle: water",94 % of control
Nc1ncc2c(n1)-c1ccccc1OC2,T/C,[4],92 % of control
same,T/C,[5],103 % of control
same,T/C,[6],95 % of control
Cn1c(=O)c2c(ncn2CCSc2ncnc3nc[nH]c23)n(C)c1=O,T/C,[7],97 % of control
same,T/C,"dose: 100.0 mg/kg/injection, schedule: Q01DX009 (ip), vehicle: saline",105 % of control
same,T/C,"dose: 200.0 mg/kg/injection, schedule: Q01DX009 (ip), vehicle: saline",114 % of control
NC(C(=O)O)C1=CCCCCC1 (configuration not stated),T/C,[8],100 % of control
same,T/C,[9],101 % of control
same,T/C,[10],106 % of control
same,T/C,[11],101 % of control
CC(C)=CCC/C(C)=C/CC/C(C)=C/CC/C(C)=C/CC/C(C)=C/CC/C(C)=C/CC/C(C)=C/CC/C(C)=C/CC/C(C)=C/CO,T/C,"dose: 6.25 mg/kg/injection, schedule: Q01DX009 (ip), vehicle: saline + alcohol",98 % of control
same,T/C,"dose: 12.5 mg/kg/injection, schedule: Q01DX009 (ip), vehicle: saline + alcohol",96 % of control
same,T/C,"dose: 25.0 mg/kg/injection, schedule: Q01DX009 (ip), vehicle: saline + alcohol",99 % of control
same,T/C,"dose: 50.0 mg/kg/injection, schedule: Q01DX009 (ip), vehicle: saline + alcohol",107 % of control
same,T/C,"dose: 100.0 mg/kg/injection, schedule: Q01DX009 (ip), vehicle: saline + alcohol",96 % of control
same,T/C,"dose: 200.0 mg/kg/injection, schedule: Q01DX009 (ip), vehicle: saline + alcohol",109 % of control
COn1c2ccccc2c2c1cc1ccccc1[n+]2[O-],T/C,"dose: 12.5 mg/kg/injection, schedule: Q01DX005 (ip), vehicle: Klucel (hydroxypropylcellulose) (HPC)",113 % of control
same,T/C,[8],111 % of control
same,T/C,[9],106 % of control
same,T/C,[10],90 % of control
same,T/C,[11],94 % of control
CCCCCCC(O)C[N+](=O)[O-] (configuration not stated),T/C,"dose: 5.56 mg/kg/injection, schedule: Q01DX009 (ip), vehicle: saline with Tween-80",102 % of control
same,T/C,"dose: 8.33 mg/kg/injection, schedule: Q01DX009 (ip), vehicle: saline with Tween-80",110 % of control
same,T/C,[3],117 % of control and 124 % of control
same,T/C,"dose: 18.7 mg/kg/injection, schedule: Q01DX009 (ip), vehicle: saline with Tween-80",115 % of control
same,T/C,[1],111 % of control
same,T/C,[2],120 % of control
O=C1C=CN(C2OC(CO)C(O)C2O)C(=O)C1 (configuration not stated),T/C,"dose: 11.0 mg/kg/injection, schedule: Q01DX009 (ip), vehicle: saline",117 % of control
same,T/C,"dose: 16.0 mg/kg/injection, schedule: Q01DX009 (ip), vehicle: saline",122 % of control
same,T/C,"dose: 22.0 mg/kg/injection, schedule: Q01DX009 (ip), vehicle: saline",120 % of control and 122 % of control and 124 % of control
same,T/C,"dose: 33.0 mg/kg/injection, schedule: Q01DX009 (ip), vehicle: saline",109 % of control and 119 % of control and 120 % of control
same,T/C,[7],118 % of control and 124 % of control
c1ccc(Cc2ccc[nH]2)cc1,T/C,"dose: 100.0 mg/kg/injection, schedule: Q01DX001 (ip), vehicle: distilled water + alcohol",100 % of control
same,T/C,"dose: 200.0 mg/kg/injection, schedule: Q01DX001 (ip), vehicle: distilled water + alcohol",98 % of control
same,T/C,"dose: 400.0 mg/kg/injection, schedule: Q01DX001 (ip), vehicle: distilled water + alcohol",112 % of control
